ChEMBL document CHEMBL1124159, “Synthesis and structure-activity relationships of 2-sulfonamido-1,3,4,6,7,11b alpha-hexahydro-2H-benzo[a]quinolizines as alpha 2-adrenoceptor antagonists” (J Med Chem, 1988)

Assays:
[1] = biological target: T1, Adrenergic receptor alpha-1 (Rattus norvegicus, UniProt P15823+P23944+P43140); assay: Antagonistic activity against alpha-1 adrenergic receptor in isolated rat anococcygeus muscle; assay type: functional, tissue-based
T1 sequence (P15823 whole entry): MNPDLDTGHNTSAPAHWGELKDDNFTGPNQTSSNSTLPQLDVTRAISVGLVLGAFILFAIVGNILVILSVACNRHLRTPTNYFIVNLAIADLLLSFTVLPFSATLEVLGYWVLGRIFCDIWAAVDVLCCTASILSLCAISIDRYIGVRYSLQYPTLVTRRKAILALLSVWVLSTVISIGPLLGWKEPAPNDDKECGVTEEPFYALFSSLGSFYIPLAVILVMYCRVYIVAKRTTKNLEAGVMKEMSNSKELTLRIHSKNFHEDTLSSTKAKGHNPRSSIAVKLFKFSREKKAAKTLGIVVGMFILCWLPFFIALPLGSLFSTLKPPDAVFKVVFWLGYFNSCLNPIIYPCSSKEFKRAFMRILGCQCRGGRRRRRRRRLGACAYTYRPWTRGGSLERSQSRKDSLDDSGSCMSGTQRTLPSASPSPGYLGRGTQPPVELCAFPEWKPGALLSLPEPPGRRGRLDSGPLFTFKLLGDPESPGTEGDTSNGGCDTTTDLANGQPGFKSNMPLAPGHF
T1 sequence (P23944 whole entry): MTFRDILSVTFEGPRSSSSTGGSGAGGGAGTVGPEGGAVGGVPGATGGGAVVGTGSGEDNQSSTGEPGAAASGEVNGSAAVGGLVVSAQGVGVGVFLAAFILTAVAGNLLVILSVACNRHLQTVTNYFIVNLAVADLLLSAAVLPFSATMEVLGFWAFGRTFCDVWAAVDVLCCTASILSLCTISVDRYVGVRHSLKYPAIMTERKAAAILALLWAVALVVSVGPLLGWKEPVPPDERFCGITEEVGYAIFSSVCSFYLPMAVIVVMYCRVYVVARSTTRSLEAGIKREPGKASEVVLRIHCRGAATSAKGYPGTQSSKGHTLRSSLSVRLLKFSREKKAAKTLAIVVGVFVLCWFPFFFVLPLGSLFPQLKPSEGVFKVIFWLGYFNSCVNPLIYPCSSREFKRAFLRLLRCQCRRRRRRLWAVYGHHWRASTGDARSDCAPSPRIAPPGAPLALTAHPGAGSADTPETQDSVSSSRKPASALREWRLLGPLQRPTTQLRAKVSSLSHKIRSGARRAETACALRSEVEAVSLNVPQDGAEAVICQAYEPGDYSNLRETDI
T1 sequence (P43140 whole entry): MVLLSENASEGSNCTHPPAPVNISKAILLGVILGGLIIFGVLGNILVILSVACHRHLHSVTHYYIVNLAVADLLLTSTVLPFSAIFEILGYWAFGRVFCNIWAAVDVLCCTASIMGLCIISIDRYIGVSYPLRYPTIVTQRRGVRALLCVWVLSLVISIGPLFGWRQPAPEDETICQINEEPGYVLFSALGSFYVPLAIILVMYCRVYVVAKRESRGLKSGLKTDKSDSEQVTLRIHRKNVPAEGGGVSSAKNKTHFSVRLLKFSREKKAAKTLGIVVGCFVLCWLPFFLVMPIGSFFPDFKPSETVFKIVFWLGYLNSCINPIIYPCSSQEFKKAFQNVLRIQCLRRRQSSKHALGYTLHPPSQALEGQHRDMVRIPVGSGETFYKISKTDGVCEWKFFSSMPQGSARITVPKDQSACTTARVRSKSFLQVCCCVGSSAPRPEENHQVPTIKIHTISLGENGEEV

[2] = biological target: T2, Adrenergic receptor alpha-2 (Rattus norvegicus, UniProt P22086+P19328+P22909); assay: Antagonistic activity against alpha-2 adrenergic receptor in rat vas deferens; assay type: functional, tissue-based
T2 sequence (P22086 whole entry): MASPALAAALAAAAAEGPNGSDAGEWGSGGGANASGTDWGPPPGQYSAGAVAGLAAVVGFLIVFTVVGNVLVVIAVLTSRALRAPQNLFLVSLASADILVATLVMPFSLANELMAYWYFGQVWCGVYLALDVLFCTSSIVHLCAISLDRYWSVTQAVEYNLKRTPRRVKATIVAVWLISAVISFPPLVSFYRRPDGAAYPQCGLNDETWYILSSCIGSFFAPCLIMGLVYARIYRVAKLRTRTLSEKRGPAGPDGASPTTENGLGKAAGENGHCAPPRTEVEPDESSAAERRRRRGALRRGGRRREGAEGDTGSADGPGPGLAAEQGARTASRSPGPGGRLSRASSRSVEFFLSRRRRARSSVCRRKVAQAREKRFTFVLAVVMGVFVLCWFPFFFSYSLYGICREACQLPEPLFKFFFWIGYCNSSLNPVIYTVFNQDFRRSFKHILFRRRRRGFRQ
T2 sequence (P19328 whole entry): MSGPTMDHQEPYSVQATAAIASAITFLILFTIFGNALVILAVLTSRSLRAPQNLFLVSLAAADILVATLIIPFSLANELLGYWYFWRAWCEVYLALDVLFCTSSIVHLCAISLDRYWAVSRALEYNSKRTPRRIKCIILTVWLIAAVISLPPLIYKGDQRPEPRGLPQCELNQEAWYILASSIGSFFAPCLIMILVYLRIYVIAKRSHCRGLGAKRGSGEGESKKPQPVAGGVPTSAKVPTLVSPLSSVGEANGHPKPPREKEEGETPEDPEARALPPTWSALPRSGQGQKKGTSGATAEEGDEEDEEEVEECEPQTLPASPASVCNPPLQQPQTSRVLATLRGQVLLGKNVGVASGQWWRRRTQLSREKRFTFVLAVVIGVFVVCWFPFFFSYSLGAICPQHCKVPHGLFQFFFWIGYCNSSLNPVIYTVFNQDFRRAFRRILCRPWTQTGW
T2 sequence (P22909 whole entry): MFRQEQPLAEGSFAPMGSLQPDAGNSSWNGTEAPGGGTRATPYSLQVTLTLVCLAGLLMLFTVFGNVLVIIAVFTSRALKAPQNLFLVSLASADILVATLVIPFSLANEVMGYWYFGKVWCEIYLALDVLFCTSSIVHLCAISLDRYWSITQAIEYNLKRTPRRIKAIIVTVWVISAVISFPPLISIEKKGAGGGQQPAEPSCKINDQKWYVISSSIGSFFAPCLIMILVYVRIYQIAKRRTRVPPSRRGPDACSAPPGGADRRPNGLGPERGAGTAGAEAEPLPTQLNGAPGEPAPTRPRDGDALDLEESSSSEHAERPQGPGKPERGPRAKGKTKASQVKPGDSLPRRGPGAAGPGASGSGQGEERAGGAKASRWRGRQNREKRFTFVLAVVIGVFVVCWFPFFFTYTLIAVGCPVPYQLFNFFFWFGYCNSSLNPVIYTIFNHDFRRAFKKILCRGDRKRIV

Row | Structure (SMILES) | pA2 [1] | pA2 [2]
1 | CN([C@@H]1CCN2CCc3ccccc3[C@@H]2C1)S(=O)(=O)c1ccccc1 | 7.05 | 8.44
2 | CC(C)CS(=O)(=O)N(C)[C@H]1CCN2CCc3ccccc3[C@H]2C1 | 5.2 | < 5
3 | CN([C@@H]1CCN2CCc3ccccc3[C@@H]2C1)S(=O)(=O)CCl | 6.61 | 8.26
4 | Cc1ccccc1S(=O)(=O)N(C)[C@@H]1CCN2CCc3ccccc3[C@@H]2C1 | 6.27 | 7.87
5 | CN(C)S(=O)(=O)N(C)[C@@H]1CCN2CCc3ccccc3[C@@H]2C1 | 5.95 | 7.4
6 | CN([C@H]1CCN2CCc3ccccc3[C@H]2C1)S(C)(=O)=O | 5.3 | < 5
7 | COc1ccc(S(=O)(=O)N(C)[C@@H]2CCN3CCc4ccccc4[C@@H]3C2)cc1 | 6.5 | 8.1
8 | CNS(=O)(=O)N(C)[C@@H]1CCN2CCc3ccccc3[C@@H]2C1 | 6.19 | 7.44
9 | CCCCS(=O)(=O)N(C)[C@@H]1CCN2CCc3ccccc3[C@@H]2C1 | 6.6 | 7.87
10 | CN([C@@H]1CCN2CCc3ccccc3[C@@H]2C1)S(N)(=O)=O | 5.7 | 7.1
11 | CN([C@@H]1CCN2CCc3ccccc3[C@@H]2C1)S(=O)(=O)CC1CC1 | 6.7 | 7.7
12 | CN([C@@H]1CCN2CCc3ccccc3[C@@H]2C1)S(=O)(=O)c1cccc2ccccc12 | 7.1 | 8.06
13 | CC(C)COC(=O)N(C)[C@@H]1CCN2CCc3ccccc3[C@@H]2C1 | 7 | –
14 | Cc1ccc(S(=O)(=O)N(C)[C@@H]2CCN3CCc4ccccc4[C@@H]3C2)cc1 | 6.84 | 8.1
15 | CCCCCCCCCCCCS(=O)(=O)N(C)[C@@H]1CCN2CCc3ccccc3[C@@H]2C1 | – | < 5
16 | CCN([C@@H]1CCN2CCc3ccccc3[C@@H]2C1)S(=O)(=O)CC(C)C | 6.65 | 7.61
17 | CN([C@@H]1CCN2CCc3ccccc3[C@@H]2C1)S(=O)(=O)C(F)(F)F | 5.49 | 7.15
18 | CN([C@@H]1CCN2CCc3ccccc3[C@@H]2C1)S(=O)(=O)CC(C)(C)C | 6.5 | 8.11
19 | CCOC(=O)N(C)[C@@H]1CCN2CCc3ccccc3[C@@H]2C1 | 6.93 | –
20 | CN(C)CCS(=O)(=O)N(C)[C@@H]1CCN2CCc3ccccc3[C@@H]2C1 | 5.6 | 7.26
21 | COP(=O)(OC)N(C)[C@@H]1CCN2CCc3ccccc3[C@@H]2C1 | – | 6.63
22 | CN([C@@H]1CCN2CCc3ccccc3[C@@H]2C1)S(C)(=O)=O (stereo in doubt; 6) | 6.04 | 7.81
23 | CCCS(=O)(=O)N(C)[C@@H]1CCN2CCc3ccccc3[C@@H]2C1 (stereo in doubt; 10) | 6.34 | 8.08

The remaining lines, values ahead:

Row | pA2 [1] | pA2 [2] | Structure (SMILES)
24 | 6.09 | 7.6 | CN([C@@H]1CCN2CCc3ccccc3[C@@H]2C1)S(=O)(=O)c1ccc(Cl)cc1
25 | 6.17 | 7.7 | CCS(=O)(=O)N(C)[C@@H]1CCN2CCc3ccccc3[C@@H]2C1
26 | 6.7 | 8.1 | CN([C@@H]1CCN2CCc3ccccc3[C@@H]2C1)S(=O)(=O)N1CCCC1
27 | 6.65 | 7.94 | CN([C@@H]1CCN2CCc3ccccc3[C@@H]2C1)S(=O)(=O)c1ccsc1
28 | 6.55 | 6.34 | CC(C)CS(=O)(=O)N[C@@H]1CCN2CCc3ccccc3[C@@H]2C1
29 | 5.8 | 7.1 | CCCS(=O)(=O)N(C)[C@H]1CCN2CCc3ccccc3[C@H]2C1
30 | 6.8 | 7.74 | CCCCCS(=O)(=O)N(C)[C@@H]1CCN2CCc3ccccc3[C@@H]2C1
31 | 5.93 | 7.56 | CN([C@@H]1CCN2CCc3ccccc3[C@@H]2C1)S(=O)(=O)CC(F)(F)F
32 | 6.61 | 7.39 | CCN([C@@H]1CCN2CCc3ccccc3[C@@H]2C1)S(C)(=O)=O
33 | 6.84 | 8.46 | CN([C@@H]1CCN2CCc3ccccc3[C@@H]2C1)S(=O)(=O)c1cccc2cccnc12
34 | 6.32 | 7.93 | C=CS(=O)(=O)N(C)[C@@H]1CCN2CCc3ccccc3[C@@H]2C1
35 | 6.73 | 8.22 | CN([C@@H]1CCN2CCc3ccccc3[C@@H]2C1)S(=O)(=O)c1cccnc1
36 | 6.56 | – | COC(=O)N(C)[C@@H]1CCN2CCc3ccccc3[C@@H]2C1
37 | – | 5.7 | CN([C@@H]1CCN2CCc3ccccc3C2C1)S(C)(=O)=O (stereo partly drawn)
38 | 6.11 | 7.5 | CN([C@@H]1CCN2CCc3ccccc3[C@@H]2C1)S(=O)(=O)CCN1CCCCC1
39 | 5.86 | 5.78 | CCCS(=O)(=O)N(C)[C@@H]1CCN2CCc3ccccc3C2C1 (stereo partly drawn)
40 | 6.44 | 6.77 | CCCN([C@@H]1CCN2CCc3ccccc3[C@@H]2C1)S(C)(=O)=O
41 | 6.48 | 8.05 | CN([C@@H]1CCN2CCc3ccccc3[C@@H]2C1)S(C)(=O)=O (stereo in doubt)
42 | 6.49 | 8.16 | CC(C)CS(=O)(=O)N(C)[C@@H]1CCN2CCc3ccccc3[C@@H]2C1 (stereo in doubt; 16)
